Test results from paper PMC2901217, “Flavonoids activate pregnane × receptor-mediated CYP3A4 gene expression by inhibiting cyclin-dependent kinases in HepG2 liver carcinoma cells” (BMC Biochemistry, 2010).

Assays:
[1] = system: PXR-mediated CYP3A4 promoter activity in HepG2 cells stably transfected with PXR and CYP3A4-luc; assay: PXR transactivation assay (CYP3A4-luc luciferase reporter); details: 24 h; for PXR activation as % of the activity from 2 μM of rifampicin: compound below 10 μM; for Activation of PXR-mediated CYP3A4 promoter (result in words): screen hit in HepG2 PXR/CYP3A4-luc cells
Protocol: HepG2 cells (2 × 10^4/well) stably transfected with PXR and CYP3A4-luc were seeded in 384-well plates and treated with indicated compounds for 24 h before the luciferase assay. […] Compounds were tested in quadruplicate. The bars denote the standard deviation.
Compounds were added to 384-well plates seeded with cells in a phenol red-free medium containing 5% charcoal/dextran-treated FBS and incubated for 24 h at 37°C before conducting the luciferase assay. The final concentration of DMSO in each well was maintained at 0.1%. DMSO and 2 μM of rifampicin were used as the negative and positive control, respectively. Luciferase activities were detected by using EnVision plate reader (PerkinElmer Life Sciences), as previously reported.

[2] = target: Cdk2 (Homo sapiens, UniProt P24941); assay: Cdk kinase profiling assay (Ambit Biosciences); assay type: binding
Protocol: (§1) Since flavonoids have been reported to inhibit multiple Cdks, we investigated the inhibitory effect of flavonoid apigenin on various Cdks. Apigenin inhibited multiple Cdks, including Cdk2, 4, 5, 7, 8, 9 and 11 (Table 1). […] GST was expressed and purified by using pGEX-4T-1 in Escherichia coli BL21 and was used as the negative control. The reaction mixture was incubated at 30°C for 30 min before being electrophoresed by SDS-PAGE. The gel was stained by using SimplyBlue SafeStain (Invitrogen), desiccated by the Labconco gel dryer (Labconco, Kansas City, MO), and exposed overnight to the Storage Phosphor Screen (GE Healthcare). Phosphoimages were obtained by using the Storm scanner (GE Healthcare). In vitro Cdks kinase profiling assays were performed by Ambit Biosciences (San Diego, CA) as previously described.

[3] = target: Cdk3 (Homo sapiens, UniProt Q00526); assay: Cdk kinase profiling assay (Ambit Biosciences); assay type: binding
Protocol: as §1

[4] = target: Cdk8 (Homo sapiens, UniProt P49336); assay: Cdk kinase profiling assay (Ambit Biosciences); assay type: binding
Protocol: as §1

[5] = target: Cdk7 (Homo sapiens, UniProt P50613); assay: Cdk kinase profiling assay (Ambit Biosciences); assay type: binding
Protocol: as §1

[6] = target: Cdk5 (Homo sapiens, UniProt Q00535); assay: Cdk kinase profiling assay (Ambit Biosciences); assay type: binding
Protocol: as §1

[7] = target: Cdk9 (Homo sapiens, UniProt P50750); assay: Cdk kinase profiling assay (Ambit Biosciences); assay type: binding
Protocol: as §1

[8] = target: Cdk11 (Homo sapiens, UniProt Q9BWU1); assay: Cdk kinase profiling assay (Ambit Biosciences); assay type: binding
Protocol: as §1

[9] = target: Cdk4 (Homo sapiens, UniProt P11802); assay: Cdk kinase profiling assay (Ambit Biosciences); assay type: binding
Protocol: as §1

[10] = system: Cdk5-mediated inhibition of PXR-mediated CYP3A4 promoter activity in HepG2; assay: Cdk5-mediated inhibition of rifampicin-induced CYP3A4 promoter activity (transient co-transfection, Dual-glo luciferase); assay type: cell-based, human; details: p < 0.001
Protocol: Next, we determined the functional correlation between the activities of Cdk5 and PXR. […] A total of 20 μg of combined plasmids was used to transfect 5 × 10^6 cells seeded in a T75 flask 16 h before transfection. Transfected cells were seeded into white 96-well plates (at 10,000 cells/well) 24 h later, and treated with DMSO or compounds as indicated for 24 h before Dual-glo luciferase assay. CYP3A4 promoter activity was normalized by using activity of the CMV-renilla, and expressed as fold induction over control (DMSO; without Cdk5 transfection). […] The significance of the difference between datasets was determined by using the Student's t test.

[11] = target: T1, GST-hPXR ligand-binding domain (Homo sapiens, UniProt O75469)
T1 sequence (O75469 146-433 limits assumed): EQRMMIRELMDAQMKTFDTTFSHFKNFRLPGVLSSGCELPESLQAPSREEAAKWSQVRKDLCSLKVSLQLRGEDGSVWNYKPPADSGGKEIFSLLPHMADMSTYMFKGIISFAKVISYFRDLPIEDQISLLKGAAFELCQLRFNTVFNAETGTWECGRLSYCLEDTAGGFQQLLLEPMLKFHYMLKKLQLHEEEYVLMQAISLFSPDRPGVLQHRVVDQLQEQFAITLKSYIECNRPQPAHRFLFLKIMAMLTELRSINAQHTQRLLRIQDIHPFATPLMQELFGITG
Protocol: The time-resolved fluorescence resonance transfer (TR-FRET) PXR competitive binding assay was performed as described previously [9]. Briefly, the assays were performed in a volume of 20 μl in 384-well solid black plates with 5 nM GST-hPXR ligand-binding domain, 40 nM fluorescent-labeled hPXR agonist (Fluomore PXR Green), 5 nM terbium-labeled anti-GST antibody, and test compound at different concentrations. […] Curves were generated by using GraphPad Prism 4.0 (GraphPad Software, La Jolla, CA).

Cdk3, sequence (Q00526 whole entry): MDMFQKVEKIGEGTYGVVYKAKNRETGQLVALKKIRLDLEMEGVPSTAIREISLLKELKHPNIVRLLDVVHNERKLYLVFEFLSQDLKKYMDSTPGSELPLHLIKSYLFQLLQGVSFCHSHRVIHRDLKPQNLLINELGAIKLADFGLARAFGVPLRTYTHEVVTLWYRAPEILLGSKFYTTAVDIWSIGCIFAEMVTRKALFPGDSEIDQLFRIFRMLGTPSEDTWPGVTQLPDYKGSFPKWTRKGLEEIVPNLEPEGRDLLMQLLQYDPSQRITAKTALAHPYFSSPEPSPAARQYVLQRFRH
Cdk8, sequence (P49336 whole entry): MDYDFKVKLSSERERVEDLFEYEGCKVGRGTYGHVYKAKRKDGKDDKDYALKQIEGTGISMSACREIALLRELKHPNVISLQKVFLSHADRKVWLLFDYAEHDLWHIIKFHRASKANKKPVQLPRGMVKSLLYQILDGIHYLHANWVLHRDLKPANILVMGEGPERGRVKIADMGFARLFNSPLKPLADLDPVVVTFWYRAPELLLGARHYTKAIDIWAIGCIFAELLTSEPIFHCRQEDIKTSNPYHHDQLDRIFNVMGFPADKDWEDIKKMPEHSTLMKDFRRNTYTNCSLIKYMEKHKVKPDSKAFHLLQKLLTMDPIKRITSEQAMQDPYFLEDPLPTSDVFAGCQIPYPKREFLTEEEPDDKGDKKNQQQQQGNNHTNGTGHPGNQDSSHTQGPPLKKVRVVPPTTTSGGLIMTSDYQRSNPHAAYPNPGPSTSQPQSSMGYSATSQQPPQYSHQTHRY
Cdk4, sequence (P11802 whole entry): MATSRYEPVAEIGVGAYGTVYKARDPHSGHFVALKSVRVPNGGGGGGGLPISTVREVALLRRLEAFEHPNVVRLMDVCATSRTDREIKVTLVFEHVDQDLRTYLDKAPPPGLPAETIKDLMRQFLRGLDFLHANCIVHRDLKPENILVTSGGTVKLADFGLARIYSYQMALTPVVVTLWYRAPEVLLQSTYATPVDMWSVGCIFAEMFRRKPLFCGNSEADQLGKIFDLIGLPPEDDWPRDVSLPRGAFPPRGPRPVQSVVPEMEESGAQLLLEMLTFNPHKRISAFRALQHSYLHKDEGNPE
Cdk11, sequence (Q9BWU1 whole entry): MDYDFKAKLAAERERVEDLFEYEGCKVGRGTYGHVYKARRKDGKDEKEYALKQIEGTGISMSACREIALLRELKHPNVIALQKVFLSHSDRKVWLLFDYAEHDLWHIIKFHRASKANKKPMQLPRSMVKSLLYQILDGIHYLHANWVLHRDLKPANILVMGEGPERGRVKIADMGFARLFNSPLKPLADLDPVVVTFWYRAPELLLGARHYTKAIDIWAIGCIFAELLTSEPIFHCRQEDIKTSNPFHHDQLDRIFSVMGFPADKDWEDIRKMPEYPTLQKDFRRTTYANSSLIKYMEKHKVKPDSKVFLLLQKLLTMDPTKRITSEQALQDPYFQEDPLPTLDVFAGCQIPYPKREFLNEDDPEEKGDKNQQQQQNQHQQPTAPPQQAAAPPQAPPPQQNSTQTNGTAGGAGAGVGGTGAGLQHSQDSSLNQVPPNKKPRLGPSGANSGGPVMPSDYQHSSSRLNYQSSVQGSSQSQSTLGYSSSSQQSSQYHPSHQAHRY
Cdk9, sequence (P50750 whole entry): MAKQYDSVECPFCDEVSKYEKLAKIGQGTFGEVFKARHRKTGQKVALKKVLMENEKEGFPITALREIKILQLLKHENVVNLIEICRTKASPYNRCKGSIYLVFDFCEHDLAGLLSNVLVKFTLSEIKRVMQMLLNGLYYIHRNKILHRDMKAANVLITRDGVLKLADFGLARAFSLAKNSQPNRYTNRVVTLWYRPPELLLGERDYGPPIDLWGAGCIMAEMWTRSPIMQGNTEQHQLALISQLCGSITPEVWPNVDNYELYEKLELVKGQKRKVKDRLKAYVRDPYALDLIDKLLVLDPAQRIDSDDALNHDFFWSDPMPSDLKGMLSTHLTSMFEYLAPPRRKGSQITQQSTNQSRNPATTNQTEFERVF
Cdk5, sequence (Q00535 whole entry): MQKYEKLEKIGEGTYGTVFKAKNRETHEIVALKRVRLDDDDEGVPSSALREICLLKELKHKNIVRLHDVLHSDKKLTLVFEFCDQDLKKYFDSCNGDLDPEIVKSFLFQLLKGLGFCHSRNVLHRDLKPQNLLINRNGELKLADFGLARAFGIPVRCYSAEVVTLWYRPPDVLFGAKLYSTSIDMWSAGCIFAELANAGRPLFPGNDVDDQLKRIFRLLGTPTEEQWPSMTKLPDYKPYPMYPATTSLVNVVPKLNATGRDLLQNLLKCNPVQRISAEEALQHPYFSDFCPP
Cdk7, sequence (P50613 whole entry): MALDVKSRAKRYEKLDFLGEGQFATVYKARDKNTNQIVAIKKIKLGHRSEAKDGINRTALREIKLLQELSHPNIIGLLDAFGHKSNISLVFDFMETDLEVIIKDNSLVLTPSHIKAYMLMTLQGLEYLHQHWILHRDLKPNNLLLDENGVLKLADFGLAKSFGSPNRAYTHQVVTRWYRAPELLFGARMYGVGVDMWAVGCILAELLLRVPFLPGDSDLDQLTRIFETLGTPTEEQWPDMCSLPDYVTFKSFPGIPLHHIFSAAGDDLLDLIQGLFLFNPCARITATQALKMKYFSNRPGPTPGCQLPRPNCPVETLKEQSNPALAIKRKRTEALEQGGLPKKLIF

Structure (SMILES): O=c1cc(-c2ccc(O)cc2)oc2cc(O)cc(O)c12 [apigenin]
- PXR activation as % of the activity from 2 μM of rifampicin [1]: more than 50%
- Activation of PXR-mediated CYP3A4 promoter (result in words) [1]: potent activators
- Kd [2]: 9.8 µM
- Kd [3]: > 30 µM
- Kd [4]: 5.8 µM
- Kd [5]: 1700 nM
- Kd [6]: 3.9 µM
- Kd [7]: 2000 nM
- Kd [8]: 3 µM
- Kd [9]: 7 µM

Structure (SMILES): COc1ccc(-c2coc3cc(O)cc(O)c3c2=O)cc1 [biochanin A]
- Activation of PXR-mediated CYP3A4 promoter (result in words) [1]: potent activators

Structure (SMILES): CCCC[C@@H](C=O)NC(=O)[C@H](CC(C)C)NC(=O)OCc1ccccc1 [calpeptin, reference compound]
- Effect on inhibitory effect of Cdk5 on CYP3A4 promoter activity (result in words) [10]: decreased the inhibitory effect of Cdk5
- Concentration as potent as 2 μM of rifampicin in inducing PXR activity ([1]; HepG2 PXR/CYP3A4-luc): 4.4 µM

Structure (SMILES): O=c1cc(-c2ccccc2)oc2cc(O)cc(O)c12 [chrysin]
- Activation of PXR-mediated CYP3A4 promoter (result in words) [1]: potent activators
- Binding to PXR (result in words) [11]: did not bind

Structure (SMILES): O=c1c(-c2ccc(O)cc2)coc2cc(O)ccc12 [daidzein]
- Activation of PXR-mediated CYP3A4 promoter (result in words) [1]: potent activators

Structure (SMILES): O=c1c(-c2ccc(O)cc2)coc2cc(O)cc(O)c12 [genistein]
- Activation of PXR-mediated CYP3A4 promoter (result in words) [1]: potent activators

Structure (SMILES): O=c1cc(-c2ccc(O)c(O)c2)oc2cc(O)cc(O)c12 [luteolin]
- PXR activation, times more effective than 2 μM rifampicin ([1]; compound at 40 μM, versus 2 μM rifampicin): 7 times
- PXR activation as % of the activity from 2 μM of rifampicin [1]: more than 50%
- Activation of PXR-mediated CYP3A4 promoter (result in words) [1]: potent activators

Structure (SMILES): COc1cc(O)c2c(=O)c(-c3ccc(O)cc3)coc2c1 [prunetin]
- Activation of PXR-mediated CYP3A4 promoter (result in words) [1]: potent activators
